Measured values as given in patent publication US20050238706A1, “Pharmaceutically active lipid based formulation of SN-38” (NeoPharm, Inc., priority 2002, published 2005).

How the values were obtained:
[1] = test system: P388 murine leukemia tumor cells; experiment: Therapeutic efficacy in P388 tumor bearing CD2F1 mice; assay type: in vivo, mouse; settings: for 60-day % Survival: n = 10
Description: (§1) Either female CD2F1 (6-8 weeks old) mice or female C.B-17 SCID mice (4-6 weeks old) were obtained from the vendor and maintained as described previously. The CD2F1 mice were transplanted with P388 murine leukemia tumor cells, whereas the SCID mice were transplanted with HT-29 human colon cancer cells, Capan-1 human pancreatic cancer cells and MX-1 human breast cancer cells. After a suitable waiting period (waiting period varied based on the tumor models), each mouse received intravenous injection via tail vein of placebo liposomes, LE-SN38 or CPT-11 at pre-determined dose levels.

[2] = test system: HT-29 human colon cancer cells; experiment: Therapeutic efficacy in HT-29 xenograft, SCID mice; assay type: in vivo; settings: 8 mg/kg × 5, iv, day 28 post treatment, n = 5
Description: as §1

[3] = test system: Capan-1 human pancreatic cancer cells; experiment: Therapeutic efficacy in Capan-1 xenograft, SCID mice; assay type: in vivo; settings: day 28 post treatment, n = 5
Description: as §1

[4] = cited from earlier work
[5] = test system: topoisomerase I purified from human and rodent tumor cell lines; settings: enzyme purified from human and rodent tumor cell lines; cited from earlier work

Compound: CCc1c2c(nc3ccc(OC(=O)N4CCC(N5CCCCC5)CC4)cc13)-c1cc3c(c(=O)n1C2)COC(=O)[C@]3(O)CC [CPT-11, irinotecan]
- median survival time ([1]; 4 mg/kg for 5 consecutive days): 16 days
- 60-day % Survival ([1]; 4 mg/kg × 5, iv): 0%
- median survival time ([1]; 8 mg/kg for 5 consecutive days): 20 days
- 60-day % Survival ([1]; 8 mg/kg × 5, iv): 0%
- median survival time ([1]; 16 mg/kg for 5 consecutive days): 22 days
- % Growth Inhibition [2]: 36%
- % Growth Inhibition ([3]; 8 mg/kg × 5, iv): 47.8%
- % Growth Inhibition ([3]; 16 mg/kg × 5, iv): 68.7%

Compound: CCc1c2c(nc3ccc(O)cc13)-c1cc3c(c(=O)n1C2)COC(=O)[C@]3(O)CC [SN38, (+)-(4S)-4,11-diethyl-4,9-dihydroxy-1H-pyrano[3′,4′:6,7]-indolizino[1,2-b]quinoline-3,14(4H,12H)-dione]
- solubility in aqueous solutions [4]: exceedingly insoluble
- potency as an inhibitor of topoisomerase I relative to irinotecan [5]: approximately 1000 times
